Experiment [1] can be described thus: Hoechst 33342 nuclear staining (48 h read-out). The format is cell-based. The essentials: (§1)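 Adherent cells pre-spread 24 h before dosing, suspension cells dosed at seeding; compounds at 0.001 μM-10 μM final, 48 h at culture conditions. Hoechst 33342 (2-5 μg/ml) added for 30 min, then fluorescence microscopy scoring of apoptotic nuclear fraction and apoptosis-specific morphology, reported as scores A-D.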

For experiment [2], the system named is tumor cells. Nature of the experiment: Hoechst 33342 nuclear staining (48 h read-out). The format is cell-based. The essentials: as §1
Experiment [3] is described as follows: MTS proliferation assay (72 h read-out). The format is cell-based. The note with it: MRC5 cells. The essentials: (§2)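 Tumour cells (1.5×10^3–10^4 per well) were seeded 24 h before compound addition, then exposed to 0.001–10 μM final compound for 72 h under culture conditions. MTS reagent was added for a further 3 h, absorbance was read at 492 nm, and results were binned into scores A–D.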
(In general: Tetrazolium assays rely on reduction of a dye to a coloured formazan, in cell work by metabolically active cells.)

The subject of experiment [4] is tumor cells. The experiment in a line: MTS proliferation assay (72 h read-out). The experiment is classed as cell-based. The essentials:
as §2

Experiment [5] in a line: Mitochondrial membrane potential, JC-1 (read-out 48 h). The experiment is classed as cell-based. The conditions noted are these: PBL, JC-1, 48 h. Put shortly: (§3)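 Tumor cells were treated with test compounds (adherent cells after 24 h of attachment, suspension cells immediately), medium holding up to 5% DMSO. After 48 h, JC-1 (2-5 μg/ml in added medium) was applied for 30 min. Fluorescence microscopy (FITC/TRITC filters) scored the fraction of cells with dissipated mitochondrial membrane potential as categories A-D.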

Experiment [6] deals with tumor cells. Described as above. The format is cell-based. The note with it: JC-1, 48 h. Put shortly: as §3
Another experiment has as its system HeLa. Nature of the experiment: Colony Forming Units (read-out 6 days), HeLa. The note with it: colonies containing more than 30 cells, read-out: Colony Forming Units, score based on IC50, HeLa. The experiment is classed as cell-based, human. The method, then:
(§4) Appropriate numbers of cells (100-150 cells, dependent on the cell type) are being seeded out in 1 ml complete medium into 6-well plates and allowed to attach for 48 h. The compounds are added after 48 h in 500 μl solution. The concentrations are in the range of 0.001 μM-3 μM. Control plates receive the same volume of medium containing the appropriate amount of DMSO. The plates are incubated for 5-7 days at cell culture conditions and subsequently scored for growth of colonies (containing more than 30 cells) by using a microscope.

The next experiment deals with H460. Nature of the experiment: Colony Forming Units (read-out 6 days), H460. The format is cell-based, human. The note with it: colonies containing more than 30 cells, read-out: Colony Forming Units, score based on IC50, H460. As for the experimental part:
as §4

[7] abbreviates: MRC5 cells, read-out: Hoechst 33342 nuclear staining EC50, MRC5.
Setting [8] is: PBL, read-out: Hoechst 33342 nuclear staining EC50, PBL.
Setting [9] is: HeLa cells, read-out: Hoechst 33342 nuclear staining EC50, HeLa.
[10] abbreviates: Jily cells, read-out: Hoechst 33342 nuclear staining EC50, Jily.
Where [11] appears, read: Jurkat cells, read-out: Hoechst 33342 nuclear staining EC50, Jurkat.
Where [12] appears, read: HT1080 cells, read-out: MTS proliferation assay IC50, HT1080.
The mark [13] stands for this setting: HeLa cells, read-out: MTS proliferation assay IC50, HeLa.
Where [14] appears, read: Jily cells, read-out: MTS proliferation assay IC50, Jily.
Where [15] appears, read: Jurkat cells, read-out: MTS proliferation assay IC50, Jurkat.
[16] abbreviates: HeLa cells, read-out: Mitochondrial membrane potential (read-out 48 h) HeLa.
[17] abbreviates: Jily cells, read-out: Mitochondrial membrane potential (read-out 48 h) Jily.
Where [18] appears, read: Jurkat cells, read-out: Mitochondrial membrane potential (read-out 48 h) Jurkat.
Where [19] appears, read: MCF7 cells, read-out: Mitochondrial membrane potential (read-out 48 h) MCF7.
The mark [20] stands for this setting: Homo sapiens, MRC5 cells, read-out: Hoechst 33342 nuclear staining EC50, MRC5.
Where [21] appears, read: Homo sapiens, HeLa cells, read-out: Hoechst 33342 nuclear staining EC50, HeLa.
[22] abbreviates: Homo sapiens, Jurkat cells, read-out: Hoechst 33342 nuclear staining EC50, Jurkat.
Where [23] appears, read: Homo sapiens, HT-1080, HT1080 cells, read-out: MTS proliferation assay IC50, HT1080.
The mark [24] stands for this setting: Homo sapiens, HeLa cells, read-out: MTS proliferation assay IC50, HeLa.
Setting [25] is: Homo sapiens, Jurkat cells, read-out: MTS proliferation assay IC50, Jurkat.
Setting [26] is: Homo sapiens, HeLa cells, read-out: Mitochondrial membrane potential (read-out 48 h) HeLa.
Where [27] appears, read: Homo sapiens, Jurkat cells, read-out: Mitochondrial membrane potential (read-out 48 h) Jurkat.
Where [28] appears, read: Homo sapiens, MCF7 cells, read-out: Mitochondrial membrane potential (read-out 48 h) MCF7.

Read-outs that look alike come from different tables or passages of the source.

Take `C#CCOc1ccccc1C(=O)c1oc2ccc(Cl)cc2c1N` [Example 8]: the EC50 in experiment [1] (setting [7]) is above 1000 nM; in experiment [1] (setting [8]), above 1000 nM; with tumor cells [2] (setting [9]), 100 to 1000 nM; in the experiment with tumor cells [2] (setting [10]), 100 to 1000 nM; in the experiment on tumor cells [2] (setting [11]), 10 to 100 nM; in experiment [5], above 1000 nM. In addition, the EC50 with tumor cells [6] (setting [16]), in the experiment on tumor cells [6] (setting [17]), in the experiment with tumor cells [6] (setting [18]) and in the experiment with tumor cells [6] (setting [19]) was 100 to 1000 nM each time. The IC50 is 100 to 1000 nM in experiment [3]; 100 to 1000 nM in the experiment with tumor cells [4] (setting [12]); 100 to 1000 nM in the experiment on tumor cells [4] (setting [13]); 10 to 100 nM with tumor cells [4] (setting [14]); 10 to 100 nM in the experiment with tumor cells [4] (setting [15]); 100 to 1000 nM in the experiment with HeLa. Also, the IC50 in the experiment on H460 lay within 100 to 1000 nM.

Consider `C#CCOc1ccc(OC)cc1C(=O)c1oc2ccc(Cl)cc2c1N` [Example 13], for which the EC50 in experiment [1] (setting [7]) is 100 to 1000 nM; with tumor cells [2] (setting [9]) it was 100 to 1000 nM; with tumor cells [2] (setting [10]), 100 to 1000 nM; in the experiment with tumor cells [2] (setting [11]) it was 100 to 1000 nM; in experiment [5] it was above 1000 nM; in the experiment with tumor cells [6] (setting [16]), 100 to 1000 nM. The EC50 in the experiment with tumor cells [6] (setting [17]), with tumor cells [6] (setting [18]) and in the experiment on tumor cells [6] (setting [19]) was 100 to 1000 nM in each case. For the same compound, the IC50 in experiment [3] fell in the range of 100 to 1000 nM; in the experiment with tumor cells [4] (setting [12]), 100 to 1000 nM; in the experiment with tumor cells [4] (setting [13]), 100 to 1000 nM; with tumor cells [4] (setting [14]), 10 to 100 nM; with tumor cells [4] (setting [15]) it was 10 to 100 nM; in the experiment on HeLa, 100 to 1000 nM. The IC50 in the experiment with H460 fell in the range of 100 to 1000 nM.

On to `Nc1c(C(=O)c2cccnc2N2CCOCC2)oc2ccc(Cl)cc12` [Example 37, 3-Amino-5-chloro-2-(2-morpholino-3-pyridylcarbonyl)-benzofuran], for which the EC50 is above 1000 nM in experiment [1] (setting [20]); above 1000 nM in experiment [1] (setting [8]); 10 to 100 nM in the experiment with tumor cells [2] (setting [21]); 10 to 100 nM with tumor cells [2] (setting [22]); 10 to 100 nM in the experiment with tumor cells [2] (setting [10]); above 1000 nM in experiment [5]. In addition, the EC50 in the experiment with tumor cells [6] (setting [26]) was 100 to 1000 nM; in the experiment with tumor cells [6] (setting [27]), 10 to 100 nM; in the experiment on tumor cells [6] (setting [28]), above 1000 nM; in the experiment with tumor cells [6] (setting [17]), 10 to 100 nM. Further, the IC50 in experiment [3] (Homo sapiens) is 10 to 100 nM; with tumor cells [4] (setting [23]) it was 10 to 100 nM; in the experiment with tumor cells [4] (setting [24]), 10 to 100 nM; with tumor cells [4] (setting [25]), below 10 nM; in the experiment on tumor cells [4] (setting [14]) it was 10 to 100 nM; in the experiment with HeLa (Homo sapiens, 144 h) it was 10 to 100 nM. In the experiment on H460 (Homo sapiens, NCI-H460, 144 h), the IC50 fell in the range of 10 to 100 nM.

With `COc1ccc2oc(C(=O)c3cc(F)ccc3N3CCOCC3)cc2c1` [Example 38, 2-(5-Fluoro-2-morpholinobenzoyl)-5-methoxybenzofuran], the EC50 was 10 to 100 nM in experiment [1] (setting [20]); above 1000 nM in experiment [1] (setting [8]); 10 to 100 nM in the experiment with tumor cells [2] (setting [21]); below 10 nM in the experiment on tumor cells [2] (setting [22]); below 10 nM in the experiment with tumor cells [2] (setting [10]); above 1000 nM in experiment [5]. Also, the EC50 in the experiment with tumor cells [6] (setting [26]), in the experiment on tumor cells [6] (setting [27]), in the experiment with tumor cells [6] (setting [28]) and in the experiment on tumor cells [6] (setting [17]) was 10 to 100 nM in each case. Also, the IC50 in experiment [3] (Homo sapiens) was 10 to 100 nM; in the experiment on tumor cells [4] (setting [23]), 10 to 100 nM; in the experiment with tumor cells [4] (setting [24]), 10 to 100 nM; in the experiment with tumor cells [4] (setting [25]), 10 to 100 nM; in the experiment with tumor cells [4] (setting [14]), 10 to 100 nM; with HeLa (Homo sapiens, 144 h), below 10 nM. Further, in the experiment on H460 (Homo sapiens, NCI-H460, 144 h), the IC50 was below 10 nM.

With `CCOc1ccc(F)cc1C(=O)c1oc2ccc(OC)cc2c1N` [Example 48], the EC50 in experiment [1] (setting [7]) is below 10 nM; in experiment [1] (setting [8]), above 1000 nM; in the experiment with tumor cells [2] (setting [9]) it was below 10 nM; in the experiment on tumor cells [2] (setting [10]), below 10 nM; in the experiment on tumor cells [2] (setting [11]) it was below 10 nM; in experiment [5], 100 to 1000 nM. The EC50 in the experiment on tumor cells [6] (setting [16]) is 10 to 100 nM; in the experiment with tumor cells [6] (setting [17]) it was below 10 nM; with tumor cells [6] (setting [18]), below 10 nM; in the experiment on tumor cells [6] (setting [19]), 10 to 100 nM. In addition, the IC50 was below 10 nM in experiment [3]; below 10 nM with tumor cells [4] (setting [12]); below 10 nM in the experiment with tumor cells [4] (setting [13]); below 10 nM in the experiment with tumor cells [4] (setting [14]); below 10 nM in the experiment on tumor cells [4] (setting [15]); 10 to 100 nM in the experiment with HeLa. In addition, in the experiment with H460, the IC50 is below 10 nM.
